Structures can show the parent of a compound that is named as a salt.

One test relates to Sugar beet plants. As to the kind of experiment: Plant growth after regeneration from shoots induced with temporary DZNep treatment. In kind it is in vivo, Beta vulgaris. The following applies: shoots from DZNep plates transferred into normal growth medium without DZNep, compared with shoots from control plates. An excerpt:
Beside the increased capability for shoot formation the inventors observed that shoots harvested from the control plates and from the plates supplied with DZNep and subsequently transferred into the container with normal growth medium (without DZNep), developed to plant with different biomass and vitality. […] Thus, the DZNep treatment affects also positively the plant growth after regeneration.

Test [1] relates to sugar beet callus. Description: Shoot formation after particle bombardment of sugar beet callus. In kind it is cell-based, Beta vulgaris. Here is the method:
• 1. Friable calli were produced as described above in steps 1 and 2 of Example 1. • 2. An osmotic treatment was carried out by incubating the harvested calli in a medium containing MS salts, 30 g/l sucrose,1 mg/l GA3,1 mg/l Thidiazuron (TDZ),10 g/l agar, pH 6.0, 36 g/l mannitol and 36 g/l sorbitol for 2.5 h at room temperature in the dark. • 3. Preparation and DNA coating of the gold particles was done by standard procedures, as describe in the PDS-1000/He instruction manual. The plasmid pZFNnptll with the red fluorescent marker, tdT, (see Figure 2) was coprecipitated with gold particles. • 4. Calli were bombarded with a PDS-1000/He unit (Bio-Rad), using 30 ng gold particles coated with 500 ng DNA per shot. The rupture pressure was 450 psi and the target tissue was placed at 9 cm distance from the stopping screen. • 5. After bombardment, aliquots of calli tissue were incubated in medium containing MS salts, 30 g/l sucrose, 1 mg/l GA3 and 1 mg/l TDZ, with and without 0.4 mg/l DZNep, in light/dark (16h/8h), at 24 °C for 10 days on separate plates. As a control for standard regeneration, non-bombarded aliquots of calli were treated in the osmotic medium and directly transferred to above medium without DZNep. Shoot number was scored by using a standard binocular.

Test [2] concerns sugar beet callus. Description: Shoot formation from sugar beet callus in DZNep-supplemented medium. In kind it is cell-based, Beta vulgaris. The following applies: 8 days. An excerpt: The applied method is based on the publication by Kischenko et al. (2005. Production of transgenetic sugarbeet (Beta vulgaris L.) plants resistant to phosphinothricin. Cell biology international, 29(1), 15-19.). This method relies on the induction of friable callus derived from cotyledons and hypocotyl explants. Method is genotype dependent.
• 1. Micropropagated shoots of the genotype 9BS0448 were used as starting material. Shoots were multiplied in MS salts supplemented with 30 g/l sucrose and 0.25 mg/l benzyladenine (BAP). • 2. To induce friable callus, leaf explants were isolated from micropropagated shoots and incubated in medium containing MS salts including 15 g/l sucrose and 2 mg/l BAP at 28°C in the dark for 7 weeks.
• 3. Friable calli of step 2 were harvested and placed in medium containing MS salts, 30 g/l sucrose, 1 mg/l GA3 and 1 mg/l TDZ, and transferred to separate dishes as control. Similar amount of friable calli were harvested and placed in the same medium supplemented with 0.4 mg/l DZNep. • 4. The dishes were incubated under the light/dark regime (16 h/8 h) at 24°C for 8 days. • 5. Developing shoots were counted under a stereomicroscope, in order to estimate the regeneration capacity.

As for `Nc1nccc2c1ncn2[C@@H]1C=C(CO)[C@@H](O)[C@H]1O` [DZNep, 3-Deazaneplanocin A hydrochloride], the “plant biomass and vitality after regeneration” value in the test with Sugar beet plants is “significantly bigger and more vital”. Besides, the “increase of shoots per plate compared to the bombarded control” value with sugar beet callus [1] (bombarded calli with 0.4 mg/l DZNep versus bombarded control with standard medium) was determined as 207%. In addition, the “increase of shoots per plate compared to the non-bombarded control” value in the test on sugar beet callus [1] (bombarded calli with 0.4 mg/l DZNep versus non-bombarded control without DZNep) came to 108%. In addition, the “mean value of shoots per plate” value with sugar beet callus [1] (bombarded calli, 0.4 mg/l DZNep in medium, 10 days, 24 °C, non-bombarded control 4, bombarded control 2.7) worked out at 8.3 shoots per plate. Moreover, in the test on sugar beet callus [2] (0.4 mg/l DZNep in shoot induction medium, genotype 9BS0448, 24°C, light/dark 16 h/8 h, control 13.9), the “mean value of shoots per 1 g callus tissue” value is listed as 27.1 shoots per 1 g callus tissue. Also, the “increase of shoots per 1 g callus tissue compared to control” value in the test with sugar beet callus [2] (0.4 mg/l DZNep versus control without DZNep) came to 95%.

The record behind these values is patent EP3545756A1, “REGENERATION OF PLANTS IN THE PRESENCE OF INHIBITORS OF THE HISTONE METHYLTRANSFERASE EZH2” (KWS SAAT SE & Co. KGaA, priority 2018, dated 2019).
